# Measurements reported in patent publication US9371265B2, “Compositions and methods related to inhibitors of JAK kinase” (EP PHARMA, INC., priority 2012, dated 2016).
# Key:
# AURKA = AURKA (Homo sapiens, UniProt O14965); experiment: Kinase panel: AURKA; assay type: biochemical; conditions: 10 μM EP009
# Method: (§1) Achieving JAK3 selectivity remains a significant challenge in the development of new small molecules for the treatment of cancer and immune-derived diseases. As such, the inventors employed cell-based screening assays of small-molecule libraries based upon the chemical scaffold of the established JAK3 inhibitor NC1153 (Stepkowski et al., J Immunol. (2005), 175(7):4236-4246) EP009 (FIG. 2A) was selected as a lead compound due to improved intrinsic stability (>95% purity in various solvents at 37° C. for 24 hours; FIG. 3) and high-degree of JAK3 selectivity. To test JAK3 versus JAK2 specificity of EP009, the IL-2/JAK3-dependent Kit225, and IL-3/JAK2-dependent BaF/3 cell lines were used. Kit225 and BaF/3 cells growing in the presence of IL-2 or IL-3, respectively, were treated with ascending concentrations of EP009 for 12 hours and cellular JAK3 and JAK2 tyrosine phosphorylation levels detected by Western blot analysis (FIGS. 2B and 2C). Following densitometric analysis, EP009 was determined to dose-dependently reduce IL-2-mediated JAK3 tyrosine phosphorylation with a cellular 50% inhibitory concentration (IC50) between 10 and 20 μM (FIG. 2B). […] To globally evaluate specificity, the inhibitory activity of EP009 was measured against a panel of protein kinases distributed throughout the kinome using the scanEDGE profiling service (KINOMEscan). […]
# ERBB2 = ERBB2 (Homo sapiens, UniProt P04626); experiment: Kinase panel: ERBB2; assay type: biochemical; conditions: 10 μM EP009
# ERBB2, sequence (P04626 23-1255): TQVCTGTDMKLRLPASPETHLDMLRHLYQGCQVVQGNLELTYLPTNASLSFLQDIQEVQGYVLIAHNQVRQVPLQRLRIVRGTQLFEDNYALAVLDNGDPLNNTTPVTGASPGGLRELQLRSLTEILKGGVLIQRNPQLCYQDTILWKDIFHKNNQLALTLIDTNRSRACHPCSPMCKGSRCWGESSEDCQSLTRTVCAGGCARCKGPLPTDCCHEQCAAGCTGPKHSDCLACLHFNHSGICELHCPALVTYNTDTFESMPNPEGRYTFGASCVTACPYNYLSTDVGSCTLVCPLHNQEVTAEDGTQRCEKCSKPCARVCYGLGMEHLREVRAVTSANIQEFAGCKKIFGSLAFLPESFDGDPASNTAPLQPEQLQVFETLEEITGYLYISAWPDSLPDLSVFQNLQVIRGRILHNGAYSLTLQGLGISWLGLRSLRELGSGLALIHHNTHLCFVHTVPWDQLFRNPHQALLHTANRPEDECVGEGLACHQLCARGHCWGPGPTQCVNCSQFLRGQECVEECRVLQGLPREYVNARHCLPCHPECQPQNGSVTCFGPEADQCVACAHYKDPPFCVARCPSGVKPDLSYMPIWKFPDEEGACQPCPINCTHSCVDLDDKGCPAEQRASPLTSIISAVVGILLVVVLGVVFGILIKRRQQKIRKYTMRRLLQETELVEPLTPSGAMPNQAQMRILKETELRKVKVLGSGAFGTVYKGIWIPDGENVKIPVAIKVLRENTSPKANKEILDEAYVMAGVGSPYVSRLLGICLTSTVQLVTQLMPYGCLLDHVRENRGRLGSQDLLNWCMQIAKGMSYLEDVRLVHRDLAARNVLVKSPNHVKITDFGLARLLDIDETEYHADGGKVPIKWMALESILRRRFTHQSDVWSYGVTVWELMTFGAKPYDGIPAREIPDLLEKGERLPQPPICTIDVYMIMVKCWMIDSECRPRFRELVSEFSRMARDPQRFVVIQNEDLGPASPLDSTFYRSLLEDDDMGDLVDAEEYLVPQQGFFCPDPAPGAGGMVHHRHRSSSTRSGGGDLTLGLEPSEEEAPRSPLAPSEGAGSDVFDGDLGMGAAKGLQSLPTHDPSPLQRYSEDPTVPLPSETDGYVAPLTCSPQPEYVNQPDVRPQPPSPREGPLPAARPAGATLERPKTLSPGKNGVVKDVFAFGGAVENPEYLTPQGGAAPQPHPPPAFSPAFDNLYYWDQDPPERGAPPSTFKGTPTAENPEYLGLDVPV
# Method: as §1
# ERBB4 = ERBB4 (Homo sapiens, UniProt Q15303); experiment: Kinase panel: ERBB4; assay type: biochemical; conditions: 10 μM EP009
# Method: as §1
# FGFR3 = FGFR3 (Homo sapiens, UniProt P22607); experiment: Kinase panel: FGFR3; assay type: biochemical; conditions: 10 μM EP009
# FGFR3, sequence (P22607 23-806): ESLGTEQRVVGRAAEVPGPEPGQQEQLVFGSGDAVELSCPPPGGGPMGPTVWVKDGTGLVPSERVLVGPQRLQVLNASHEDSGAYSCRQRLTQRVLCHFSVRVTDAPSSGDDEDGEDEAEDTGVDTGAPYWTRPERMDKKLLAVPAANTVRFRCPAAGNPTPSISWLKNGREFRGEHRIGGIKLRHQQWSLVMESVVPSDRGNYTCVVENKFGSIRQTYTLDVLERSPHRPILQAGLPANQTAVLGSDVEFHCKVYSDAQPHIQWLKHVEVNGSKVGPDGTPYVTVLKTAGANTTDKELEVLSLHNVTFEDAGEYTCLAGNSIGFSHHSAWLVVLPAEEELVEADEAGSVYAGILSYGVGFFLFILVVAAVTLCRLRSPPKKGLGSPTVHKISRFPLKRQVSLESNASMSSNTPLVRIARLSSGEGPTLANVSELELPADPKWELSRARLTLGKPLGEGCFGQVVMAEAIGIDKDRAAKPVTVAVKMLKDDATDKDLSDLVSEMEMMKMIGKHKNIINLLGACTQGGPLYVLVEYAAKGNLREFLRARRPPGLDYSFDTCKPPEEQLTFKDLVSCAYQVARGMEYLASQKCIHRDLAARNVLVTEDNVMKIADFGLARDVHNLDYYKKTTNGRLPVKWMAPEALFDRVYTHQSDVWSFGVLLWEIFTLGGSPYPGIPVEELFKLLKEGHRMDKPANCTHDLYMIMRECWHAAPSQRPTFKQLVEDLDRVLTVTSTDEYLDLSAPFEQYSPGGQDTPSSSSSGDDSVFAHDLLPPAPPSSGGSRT
# Method: as §1
# PIK3CA = PIK3CA (Homo sapiens, UniProt P42336); experiment: Kinase panel: PIK3CA; assay type: biochemical; conditions: 10 μM EP009
# Method: as §1
# PRKCE = PRKCE (Homo sapiens, UniProt Q02156); experiment: Kinase panel: PRKCE; assay type: biochemical; conditions: 10 μM EP009
# PRKCE, sequence (Q02156 whole entry): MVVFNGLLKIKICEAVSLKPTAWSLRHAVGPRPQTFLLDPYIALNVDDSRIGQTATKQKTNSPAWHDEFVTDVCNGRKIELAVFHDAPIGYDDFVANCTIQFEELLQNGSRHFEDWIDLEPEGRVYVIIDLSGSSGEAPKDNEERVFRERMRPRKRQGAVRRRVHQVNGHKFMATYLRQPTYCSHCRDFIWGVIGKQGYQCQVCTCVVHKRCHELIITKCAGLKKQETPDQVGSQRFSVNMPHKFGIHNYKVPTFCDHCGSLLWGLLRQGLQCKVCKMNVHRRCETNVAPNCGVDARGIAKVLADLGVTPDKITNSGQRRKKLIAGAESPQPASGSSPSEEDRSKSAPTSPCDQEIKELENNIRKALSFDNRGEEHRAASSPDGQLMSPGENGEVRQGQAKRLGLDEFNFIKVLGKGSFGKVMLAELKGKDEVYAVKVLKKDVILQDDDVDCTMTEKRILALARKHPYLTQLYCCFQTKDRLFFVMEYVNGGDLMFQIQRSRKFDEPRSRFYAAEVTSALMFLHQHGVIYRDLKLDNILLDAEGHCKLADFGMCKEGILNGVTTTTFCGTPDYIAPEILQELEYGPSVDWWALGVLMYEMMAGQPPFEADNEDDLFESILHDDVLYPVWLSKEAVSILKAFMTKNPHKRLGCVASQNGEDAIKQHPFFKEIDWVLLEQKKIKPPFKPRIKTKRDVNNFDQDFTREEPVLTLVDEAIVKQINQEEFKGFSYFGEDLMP
# Method: as §1
# JAK3 = JAK3 (Homo sapiens, UniProt P52333); experiment: Constitutive JAK3 tyrosine phosphorylation in SU-DHL-1 cells (IP/Western blot); assay type: cell-based; set-up: cellular JAK3 and JAK2 tyrosine phosphorylation levels detected by Western blot analysis; endogenous in cells; conditions: 20 μM EP009, 12 hours, vs vehicle
# JAK3, sequence (P52333 whole entry): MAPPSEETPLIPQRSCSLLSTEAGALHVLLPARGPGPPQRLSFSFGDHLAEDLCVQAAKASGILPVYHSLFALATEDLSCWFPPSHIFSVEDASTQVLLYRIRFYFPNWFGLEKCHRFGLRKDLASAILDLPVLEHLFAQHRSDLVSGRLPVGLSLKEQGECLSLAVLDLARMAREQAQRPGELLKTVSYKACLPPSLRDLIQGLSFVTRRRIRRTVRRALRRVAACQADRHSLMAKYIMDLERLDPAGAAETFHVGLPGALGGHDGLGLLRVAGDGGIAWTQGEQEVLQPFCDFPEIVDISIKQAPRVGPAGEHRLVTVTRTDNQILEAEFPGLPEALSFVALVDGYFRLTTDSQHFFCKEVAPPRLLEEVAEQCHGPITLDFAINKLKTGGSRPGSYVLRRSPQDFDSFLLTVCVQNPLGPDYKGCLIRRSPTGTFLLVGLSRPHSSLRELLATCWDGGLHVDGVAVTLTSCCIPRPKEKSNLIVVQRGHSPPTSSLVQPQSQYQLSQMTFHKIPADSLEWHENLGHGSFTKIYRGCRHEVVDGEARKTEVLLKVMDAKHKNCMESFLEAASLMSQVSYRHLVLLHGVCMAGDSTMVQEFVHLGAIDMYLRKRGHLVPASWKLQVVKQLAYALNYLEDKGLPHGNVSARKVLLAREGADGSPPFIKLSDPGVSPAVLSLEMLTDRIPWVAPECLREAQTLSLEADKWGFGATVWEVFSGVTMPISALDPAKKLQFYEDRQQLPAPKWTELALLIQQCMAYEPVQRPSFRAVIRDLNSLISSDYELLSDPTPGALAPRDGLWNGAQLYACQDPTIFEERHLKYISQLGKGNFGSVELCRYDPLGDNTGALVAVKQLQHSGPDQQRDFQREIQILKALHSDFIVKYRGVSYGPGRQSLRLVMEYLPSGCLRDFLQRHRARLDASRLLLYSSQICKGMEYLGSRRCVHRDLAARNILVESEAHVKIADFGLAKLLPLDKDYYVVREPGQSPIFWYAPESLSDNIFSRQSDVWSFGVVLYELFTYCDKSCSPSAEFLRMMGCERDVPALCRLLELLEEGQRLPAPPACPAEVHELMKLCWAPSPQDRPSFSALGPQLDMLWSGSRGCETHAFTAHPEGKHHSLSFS
# Description: FIGS. 6A-6B. EP009 treatment disrupts constitutive JAK3/STAT3 pathway activation and down-regulates CD30 cell surface expression in human ALCL cells. (A) Kit225 (lane a), SUP-M2 (lane b), Karpas299 (lane c), DEL (lane d) and SU-DHL-1 (lane e) total cell lysates were separated by 7.5% SDS-PAGE (upper panel) or were immunoprecipitated (IP) with JAK3 antibodies (lower panel) and separated on 7.5% SDS-PAGE, and then subjected to Western blot (WB) analysis with the indicated antibodies. (B) SU-DHL-1 cells were treated with vehicle (PBS; lane a) or increasing amounts of EP009 (0-40 μM; lanes b-e) for 12 hours. Cells were then lysed, clarified, and immunoprecipitated (IP) with anti-JAK3 (α-JAK3), and subjected to Western blot (WB) analysis with anti-phosphotyrosine (α-pY). Blots were stripped and reprobed with α-JAK3 to verify equivalent protein loading. (C) SU-DHL-1 cells were treated with vehicle (PBS) or increasing amounts of EP009 (0-40 μM) for 12 hours. […] Values represent pSTAT mean fluorescence intensity (MFI) normalized to corresponding GAPDH MFI, while error bars represent the standard deviation (n=2). Statistical significance was determined using Student's t-test. […] Cells were then analyzed by flow cytometry for CD30 expression. […]
# AURKA, sequence (O14965 whole entry): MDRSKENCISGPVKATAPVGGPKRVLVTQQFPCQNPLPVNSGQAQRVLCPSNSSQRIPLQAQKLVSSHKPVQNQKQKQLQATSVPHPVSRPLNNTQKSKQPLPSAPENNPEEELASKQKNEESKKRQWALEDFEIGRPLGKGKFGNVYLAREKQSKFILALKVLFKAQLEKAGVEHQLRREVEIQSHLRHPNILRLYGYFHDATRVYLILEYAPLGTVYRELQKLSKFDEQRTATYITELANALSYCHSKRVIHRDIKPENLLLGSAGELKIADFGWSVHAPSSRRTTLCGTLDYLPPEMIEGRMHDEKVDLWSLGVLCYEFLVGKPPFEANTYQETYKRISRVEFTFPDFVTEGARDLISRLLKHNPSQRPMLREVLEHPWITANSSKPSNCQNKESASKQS
structure (smiles),measurement,setting,value
"C=C1CCCCCCCCCC(CO)C1=O (centres unmarked) [EP009, 2-(Hydroxymethyl)-12-methylenecyclododecanone]",inhibition of Aurora kinase A (AURKA),AURKA,45 % inhibition
same,Kinase Activity (% of Control),AURKA; AURKA,55 % of Control
same,Kinase Activity (% of Control),ERBB2,100 % of Control
same,Kinase Activity (% of Control),ERBB4,91 % of Control
same,Kinase Activity (% of Control),FGFR3,100 % of Control
same,Kinase Activity (% of Control),PIK3CA,76 % of Control
same,Kinase Activity (% of Control),PRKCE,100 % of Control
same,decrease in JAK3 tyrosine phosphorylation levels,JAK3,70%
